Among the data in a melting point compilation (Tetko et al.; mined from patent text by program, amines drawn as free bases though some values may be those of a salt) are melting point values, retold here.

SMILES strings stand for the structures.

Molecule `CCC(=O)Nc1ccc2ncnc(Nc3cccc(Br)c3)c2c1` gave a melting point of 265 to 266 °C.
Under `COC(=O)c1ccccc1OCCOc1cccc2ccccc12` stands 132 to 137 °C; under `CCCCOc1cc(C(=O)O)cc([N+](=O)[O-])c1C(=O)c1ccc(C)cc1`, 162 to 163 °C.
Under `CN(N)c1cnn(-c2ccccc2)c(=O)c1Cl` stands 128 to 130 °C; under `CCOC(=O)CCC(NC(=O)c1ccc(NC2CCc3cc4nc(C)n(COC(=O)C(C)(C)C)c(=O)c4cc32)cc1)C(=O)OCC` (mixture of isomers), 156 °C; under `COc1cccc(NC(=NC#N)NC(NC(=O)c2ccc(Cl)cc2)C(C)(C)C)c1` (centres undefined), 173 to 175 °C.
Under `CC1CC(c2c(S(C)(=O)=O)ccc(C(=O)O)c2Cl)=NO1` (centres undefined) stands 173 to 178 °C; under `COC(=O)CC1=C(C)C(=Cc2ccc(S(N)(=O)=O)cc2)c2ccc(OC)cc21`, 170 to 171 °C.
`Cn1nc(CCc2cc(=O)[nH]c(N)n2)c2ccc(C(=O)NC[C@H](NS(=O)(=O)c3cccc4cnccc34)C(=O)O)cc21` registered a melting point of 122 to 125 °C.
Under `NS(=O)(=O)c1ccc(-c2cc(-c3c[nH]nc3-c3ccccn3)ccc2F)cc1` stands 128 °C; under `CCCn1c(COC)nc2c(N)nc3ccc(OCCN4CCCCC4)cc3c21`, 160 to 162 °C.
Under `CSc1ccc2c(c1)C(=O)OC2=O` stands 157 to 160 °C; under `O=C(O)c1cn(C2CC2)c2nc(Cl)c(F)cc2c1=O`, 209 to 212 °C; under `CCOC(=O)C1=C(C)NC(C)=C(C(=O)OCC)C1c1cc2cnccc2s1`, 204 to 205 °C.
Under `O=C(NCc1ccccc1)c1ccnc(NC(=O)c2cccc(F)c2)c1` stands 140 to 143 °C; under `Cc1nc(-n2cnn(CCO)c2=O)sc1C(=O)NCc1cccnc1`, 201 to 202 °C.
For the molecule `CNc1ccc2c(c1)nc(CCc1ccc(C#N)cc1)n2C`, the melting point fell in the range of 155 to 158 °C.
Under `COCCCOc1ccc(/C=C(\OC)C(=O)O)c(Oc2ncc(C(F)(F)F)cc2Cl)c1` stands 140 to 141 °C.
Under `O=C1NCC(c2ccccc2)CCC1Br` (centres undefined) stands 218 to 220 °C; under `O=C1CCC2(N1)C1C=CC(C1)C2c1ccccc1` (centres undefined), 152 to 155 °C.
In turn, `Cc1ccc(S(=O)(=O)n2c(-c3cn(C)c4ccc(C=O)cc34)cc3cccnc32)cc1` came in with a melting point of 188 to 189 °C.
Under `CCCCN(Cc1ccc(-c2ccccc2C(=N)NO)cc1)c1ncccc1C(=O)OCC` stands 181 to 182 °C; under `O=[N+]([O-])c1ccc(O)cc1OCCO`, 167 °C.
Under `O=c1cc(CO)oc2cc(O)ccc12` stands 250 to 252 °C.
Under `CCOC(=O)c1cc(OC)ccc1Nc1ccc(O)cc1` stands 134 to 136 °C; under `CN(C(=O)CCCCC1SCC2NC(=O)NC21)c1ccc(/C=C/c2c(F)cccc2F)cc1` (centres undefined), 91 to 93 °C; under `CCCn1c(COCC)nc2c(N)nc3ccc(OC4CCN(S(C)(=O)=O)CC4)cc3c21`, 240 to 244 °C.
Molecule `COC(=O)c1cnn(-c2ccc(Cl)cc2Cl)c1N` returned a melting point of 143 to 145 °C.
Under `COP(=O)(Cc1ccc(-c2nc3ccccc3s2)cc1)OC` stands 130 °C; under `CN(C)C=Cc1ncc([N+](=O)[O-])n1CCN(C)C`, 81 to 82 °C; under `Cc1cccc(C)c1NC(=O)c1ccc([N+](=O)[O-])cc1`, 212 to 215 °C.
Under `CC(=O)c1cc(-c2ccncc2)sc1Oc1cc(F)ccc1F` stands 119 to 121 °C.
On to `O=C(O)CNc1ccc2ccccc2c1`, for which the melting point lay within 219 to 221 °C.
As for `O=C(Nc1ccn2cc(CO)nc2c1)c1cc2cc(C(F)(F)F)ccc2n1Cc1cccc(F)c1`, the melting point is 254 to 255 °C.
Under `Cc1cc(NC(=O)COc2ccccc2)cc(C)c1S(=O)(=O)C[N+](=O)[O-]` stands 166 to 167 °C.
Under `CC(C)=CCCC(C)=CCOc1ccc(C(=O)NCCNc2cccnc2)cc1` stands 88.5 to 89.2 °C; under `Cc1ccccc1CC(=O)Nc1cc(C)c(S(=O)(=O)C[N+](=O)[O-])c(C)c1`, 188 to 190 °C; under `NNC(=O)c1ccc(N2CCNC2=O)cc1`, over 200 °C.
`CCOC(=O)C(=O)Nc1c([N+](=O)[O-])cc(Br)c2cccnc12` had a melting point of 213 to 215 °C.
Under `CC(C)(Sc1ccncc1)C(=O)O` stands 190 to 192 °C; under `COc1ccc(CCCN(Cc2ccccc2)C[C@@H](O)c2ccc(OCc3ccccc3)c(OCc3ccccc3)c2)cc1`, 59 to 62 °C.
Under `OCc1cn(Cc2ccc(OCc3ccccc3)cc2)nc1-c1ccc(F)cc1` stands 112 to 113 °C.
`CCn1c(=O)c2c(nc(/C=C/c3ccc(OS(=O)(=O)C(F)(F)F)c(OC)c3)n2C)n(CC)c1=O`: the melting point was in the range of 250 to 251 °C.
Under `CN1CCC2(CC1)c1ccccc1Sc1c(O)cccc12` stands 180 to 182 °C; under `O=C(OCCOCc1ccccc1)c1cc(Oc2ccc(C(F)(F)F)cc2Cl)ccc1[N+](=O)[O-]`, 85 °C; under `CC1(C)NC(=O)N(c2ccc(Cl)c(C(F)(F)F)c2)C1=N`, 148 to 149 °C.
Under `O=c1oc2ccccc2c(O)c1SCCOc1ccccc1` stands 120 to 121 °C.
Under `O=C1NC(=O)C(Cc2ccc(O)cc2)S1` (centres undefined) stands 151 to 152 °C; under `CCCCCCCCCCNC(=O)c1ccc(N(CC(=O)O)CC(=O)O)cc1`, 155 to 157 °C; under `COC(=O)c1ccccc1-n1c(CCl)nc2c(OC)cccc2c1=O`, 208 to 210 °C.
`COc1cc2c(cc1OC)C(=O)C(=Cc1cc(C)c([N+](=O)[O-])c(C)c1)C2` returned a melting point of 242 to 243 °C.
`C#CCNC1(c2ccccc2)c2ccccc2Oc2ccccc21`: the melting point lay within 116 to 118 °C.
Turning to `COc1cccc(COc2cc3c(cc2OC)C(=O)N(Cc2cccc(OC)c2)CC3)c1`, the melting point is 85 to 86 °C.
Consider `O=c1[nH]c2ccc(S(=O)CCCl)cc2o1` (centres undefined), for which the melting point was 150 to 155 °C.
The molecule `CN(C)C(C)(O)CC12CCC(c3ccccc31)c1ccccc12` (centres undefined) showed a melting point of 118 to 121 °C.
Under `CCOC(=O)Cc1nc(-c2ccccc2)oc1-c1ccco1` stands 79 to 80 °C.
With `O=C(O)COc1cccnc1Br`, the melting point was 172 to 174 °C.
Under `Cc1cc(-n2ccnc2)c2cccc(OCc3c(Cl)ccc(S(=O)(=O)N4CCC[C@H]4C(=O)NCC4CCN(CCC(=O)O)CC4)c3Cl)c2n1` stands 140 °C; under `Fc1cc(F)c(F)c(N=C2NCCN2)c1F`, 147 to 148 °C; under `COc1ccc2c(-c3c(-c4ccccn4)nn4c3CCCCC4)ccnc2c1`, 127 to 129 °C.
Under `COc1ccc(C2CCc3cc(C)ccc3C2=O)cc1` (centres undefined) stands 80 to 82 °C.
`CC1=C(C)C(F)N(c2ccc(Cl)c(Cl)c2)C1=O` (centres undefined) came in with a melting point of 102 to 103 °C.
Under `C/C=C/Cn1c(Cc2cc(C)cc(C)c2)c(CC)c(=O)[nH]c1=O` stands 145 to 146 °C; under `CNC(=S)N(Cc1cccnc1)N(C)C`, 101 to 102 °C.

As a reminder, the melting point is the temperature of the solid-liquid transition.
